30 molecules from ChEMBL document CHEMBL3046111, “Synthesis and insecticidal activity of 1,2,4-oxadiazole and 1,2,4-thiadiazole derivatives” (2011) can be followed below.

For orientation: mortality means the share of the test organisms that died.

Format in all cases: functional
In assay [1] the test system is Nilaparvata lugens. Description: Insecticidal activity against imidacloprid-sensitive Nilaparvata lugens (brown planthopper) fourth-instar larvae reared on compound pre-treated rice seedlings assessed as insect mortality at 200 ppm measured after 7 days.
The subject of another assay is Aphis craccivora. Description: Insecticidal activity against Aphis craccivora (cowpea aphid) apterous adults reared on broad bean seedlings followed by compound spraying at 200 ppm assessed as insect mortality measured after 4 days. The conditions noted are these: 96 h.
For assay [2], the system named is Nilaparvata lugens. Description: Insecticidal activity against imidacloprid-sensitive Nilaparvata lugens (brown planthopper) fourth-instar larvae reared on compound pre-treated rice seedlings assessed as insect mortality at 100 ppm measured after 7 days.
The test system of assay [3] is Nephotettix cincticeps. Briefly: Insecticidal activity against Nephotettix cincticeps (green rice leafhopper) fourth instar larvae reared on compound pre-treated rice seedlings assessed as insect mortality at 100 ppm measured after 7 days.
Assay [4] has as its system Nilaparvata lugens. Briefly: Insecticidal activity against imidacloprid-sensitive Nilaparvata lugens (brown planthopper) fourth-instar larvae reared on compound pre-treated rice seedlings assessed as insect mortality at 10 ppm measured after 7 days.
Assay [5] has as its system Nephotettix cincticeps. Description: Insecticidal activity against Nephotettix cincticeps (green rice leafhopper) fourth instar larvae reared on compound pre-treated rice seedlings assessed as insect mortality at 10 ppm measured after 7 days.

Each structure is given as a SMILES string.

Turning to `Cc1nsc(-c2ccc[n+](C)c2)n1`, the mortality at 200 ppm in the assay on Nilaparvata lugens [1] is 40%; with Aphis craccivora, 60%.

As to `CCCCCCCCCC[n+]1cccc(-c2nc(C)ns2)c1`, the values for the mortality at 200 ppm with Nilaparvata lugens [1] and in the assay with Aphis craccivora were 0% and 60%, respectively.

Consider `Cc1noc(-c2cccnc2)n1`, for which the mortality at 100 ppm was found to be 60% in the assay with Nilaparvata lugens [2] and 100% in the assay with Nephotettix cincticeps [3]. The mortality at 200 ppm in the assay with Nilaparvata lugens [1] worked out at 90%; in the assay with Aphis craccivora, 30%.

Regarding `Cc1nsc(C2=CCCN(Cc3ccccc3)C2)n1`, the mortality at 100 ppm in the assay on Nilaparvata lugens [2] is 100%; in the assay with Nephotettix cincticeps [3] it was 30%. Moreover, the mortality at 10 ppm in the assay with Nilaparvata lugens [4] turned out to be 10%; with Nephotettix cincticeps [5] it was 0%. For the same molecule, the mortality at 200 ppm in the assay with Nilaparvata lugens [1] came to 100%; in the assay with Aphis craccivora, 10%.

Consider `C=CC[n+]1cccc(-c2nc(C)ns2)c1`, for which the mortality at 200 ppm is 40% in the assay with Nilaparvata lugens [1] and 10% in the assay with Aphis craccivora.

Turning to `Cc1nsc(-c2ccncc2)n1`, the mortality at 100 ppm is 100% in the assay on Nilaparvata lugens [2] and 40% in the assay on Nephotettix cincticeps [3]. Besides, the mortality at 10 ppm in the assay on Nilaparvata lugens [4] and with Nephotettix cincticeps [5] was 20% in each case. Moreover, the mortality at 200 ppm with Nilaparvata lugens [1] was 100%; in the assay with Aphis craccivora, 40%.

As for `CCCCN1CCC=C(c2nc(C)ns2)C1`, the figures for the mortality at 100 ppm in the assay with Nilaparvata lugens [2] and in the assay on Nephotettix cincticeps [3] were 100% and 20%, respectively. The figures for the mortality at 10 ppm with Nilaparvata lugens [4] and in the assay on Nephotettix cincticeps [5] were 30% and 10%, respectively. For the same molecule, the values for the mortality at 200 ppm in the assay on Nilaparvata lugens [1] and with Aphis craccivora were 100% and 30%, respectively.

`CN1CCC=C(c2ncns2)C1`: the values for the mortality at 200 ppm in the assay with Nilaparvata lugens [1] and with Aphis craccivora were 60% and 30%, respectively.

On to `C[n+]1cccc(-c2ncno2)c1`, for which the mortality at 200 ppm was 60% in the assay on Nilaparvata lugens [1] and 20% in the assay with Aphis craccivora.

Consider `Cc1nsc(C2=CCCN(CC#N)C2)n1`, for which the mortality at 100 ppm in the assay with Nilaparvata lugens [2] was 100%; with Nephotettix cincticeps [3], 50%. In addition, the mortality at 10 ppm in the assay on Nilaparvata lugens [4] amounted to 10%; in the assay on Nephotettix cincticeps [5], 0%. Also, the results for the mortality at 200 ppm in the assay on Nilaparvata lugens [1] and in the assay on Aphis craccivora were 100% and 50%, respectively.

As to `CCCC[n+]1cccc(-c2nc(C)ns2)c1`, the mortality at 200 ppm is 50% in the assay with Nilaparvata lugens [1] and 10% in the assay with Aphis craccivora.

Turning to `Cc1noc(C2=CCCN(C)C2)n1`, the mortality at 100 ppm in the assay on Nilaparvata lugens [2] and with Nephotettix cincticeps [3] was 90% in each case. Further, the mortality at 10 ppm with Nilaparvata lugens [4] was determined as 70%; in the assay on Nephotettix cincticeps [5], 50%. Besides, the mortality at 200 ppm with Nilaparvata lugens [1] is 100%; in the assay with Aphis craccivora it was 0%.

With `CCC(C)[n+]1cccc(-c2nc(C)ns2)c1` (centres undefined), the mortality at 100 ppm was found to be 90% in the assay on Nilaparvata lugens [2] and 50% in the assay on Nephotettix cincticeps [3]. Also, the mortality at 10 ppm in the assay with Nilaparvata lugens [4] stood at 90%; with Nephotettix cincticeps [5], 10%. Besides, the mortality at 200 ppm was determined as 100% in the assay with Nilaparvata lugens [1] and 20% in the assay with Aphis craccivora.

For the molecule `Cc1nsc(-c2ccc[n+](CC#N)c2)n1`, the mortality at 100 ppm in the assay with Nilaparvata lugens [2] is 80%; with Nephotettix cincticeps [3], 40%. Besides, the mortality at 10 ppm is 50% in the assay with Nilaparvata lugens [4] and 10% in the assay with Nephotettix cincticeps [5]. In addition, the mortality at 200 ppm was determined as 90% with Nilaparvata lugens [1] and 70% in the assay on Aphis craccivora.

`CC[n+]1cccc(-c2nc(C)ns2)c1`: the mortality at 200 ppm in the assay on Nilaparvata lugens [1] and in the assay with Aphis craccivora was 20% throughout.

`Cc1noc(-c2ccccn2)n1`: the values for the mortality at 200 ppm in the assay on Nilaparvata lugens [1] and with Aphis craccivora were 10% and 0%, respectively.

`c1cncc(-c2ncno2)c1`: the mortality at 200 ppm with Nilaparvata lugens [1] stood at 50%; in the assay on Aphis craccivora it was 20%.

Regarding `Cc1nsc(C2CCCN(C)C2)n1` (centres undefined), the results for the mortality at 200 ppm in the assay on Nilaparvata lugens [1] and in the assay with Aphis craccivora were 30% and 0%, respectively.

`Cc1nsc(C2=CCCN(CC(C)C)C2)n1`: the values for the mortality at 100 ppm in the assay on Nilaparvata lugens [2] and with Nephotettix cincticeps [3] were 100% and 10%, respectively. Further, the mortality at 10 ppm in the assay with Nilaparvata lugens [4] worked out at 70%; in the assay with Nephotettix cincticeps [5], 0%. The mortality at 200 ppm in the assay on Nilaparvata lugens [1] stood at 100%; in the assay on Aphis craccivora, 50%.

With `C#CC[n+]1cccc(-c2nc(C)ns2)c1`, the mortality at 100 ppm stood at 80% in the assay with Nilaparvata lugens [2] and 50% in the assay on Nephotettix cincticeps [3]. Besides, the figures for the mortality at 10 ppm in the assay with Nilaparvata lugens [4] and with Nephotettix cincticeps [5] were 40% and 10%, respectively. Besides, the mortality at 200 ppm in the assay with Nilaparvata lugens [1] was 90%; with Aphis craccivora, 70%.

Regarding `Cc1nsc(-c2ccccn2)n1`, the mortality at 200 ppm with Nilaparvata lugens [1] amounted to 40%; with Aphis craccivora, 30%.

For the molecule `Cc1nsc(-c2ccc[n+](Cc3ccccc3)c2)n1`, the mortality at 200 ppm amounted to 20% in the assay with Nilaparvata lugens [1] and 10% in the assay on Aphis craccivora.

As to `Cc1noc(-c2ccc[n+](C)c2)n1`, the mortality at 200 ppm in the assay on Nilaparvata lugens [1] and in the assay on Aphis craccivora was 10% in each case.

Take `C=CCN1CCC=C(c2ncns2)C1`: the figures for the mortality at 100 ppm in the assay on Nilaparvata lugens [2] and with Nephotettix cincticeps [3] were 100% and 60%, respectively. Further, the mortality at 10 ppm stood at 60% in the assay with Nilaparvata lugens [4] and 10% in the assay on Nephotettix cincticeps [5]. Further, the results for the mortality at 200 ppm with Nilaparvata lugens [1] and with Aphis craccivora were 100% and 40%, respectively.

Turning to `C[n+]1cccc(-c2ncns2)c1`, the values for the mortality at 200 ppm in the assay with Nilaparvata lugens [1] and with Aphis craccivora were 80% and 30%, respectively.

On to `c1cncc(-c2ncns2)c1`, for which the mortality at 100 ppm in the assay with Nilaparvata lugens [2] was 100%; in the assay on Nephotettix cincticeps [3] it was 70%. For the same molecule, the values for the mortality at 10 ppm with Nilaparvata lugens [4] and in the assay with Nephotettix cincticeps [5] were 60% and 40%, respectively. In addition, the mortality at 200 ppm with Nilaparvata lugens [1] and with Aphis craccivora was 100% each time.

In the case of `C#CCN1CCC=C(c2ncns2)C1`, the mortality at 100 ppm was determined as 100% in the assay on Nilaparvata lugens [2] and 60% in the assay on Nephotettix cincticeps [3]. Also, the mortality at 10 ppm in the assay with Nilaparvata lugens [4] is 30%; in the assay on Nephotettix cincticeps [5], 20%. Also, the mortality at 200 ppm in the assay on Nilaparvata lugens [1] was 100%; with Aphis craccivora, 30%.

As to `Cc1noc(-c2ccncc2)n1`, the mortality at 200 ppm in the assay on Nilaparvata lugens [1] was 10%; in the assay with Aphis craccivora, 0%.

Turning to `CCN1CCC=C(c2nc(C)ns2)C1`, the mortality at 100 ppm with Nilaparvata lugens [2] turned out to be 100%; in the assay on Nephotettix cincticeps [3] it was 50%. The mortality at 10 ppm with Nilaparvata lugens [4] amounted to 40%; in the assay on Nephotettix cincticeps [5], 10%. Besides, the mortality at 200 ppm with Nilaparvata lugens [1] turned out to be 100%; in the assay with Aphis craccivora, 40%.

As to `CCCCCCCCCCN1CCC=C(c2nc(C)ns2)C1`, the mortality at 200 ppm with Nilaparvata lugens [1] was determined as 30%; in the assay with Aphis craccivora it was 60%.
